Results on 18 compounds are retold here after US20200347043A1, “MODULATORS OF THE INTEGRATED STRESS PATHWAY” (Calico Life Sciences LLC, priority 2019, published 2020).

The assay deals with HEK293T cells carrying the ATF4 luciferase reporter. In words: ATF4-Luc assay (in vitro model of VWMD). Type of assay: cell-based, human. The settings on record: Homo sapiens, HEK-293T, 1 μg/mL tunicamycin, 7 hours, One Glo luminescence. In a few lines:
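Tunicamycin (1 μg/mL) stress with co-added compound for 7 hours in HEK293T cells stably carrying an ATF4 5′-UTR–luciferase reporter. EC50 values come from the luminescent signal (One Glo).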

pEC50: −log10 of the molar value.

Take `O=C(NC12CC(c3cc(-c4ccc(Cl)c(F)c4)on3)(C1)C2)[C@H]1C[C@@H](O)c2cc(Cl)ccc2O1` [Compound 258, (2R,4R)-6-chloro-N-{3-[5-(4-chloro-3-fluorophenyl)-1,2-oxazol-3-yl]bicyclo[1.1.1]pentan-1-yl}-4-hydroxy-3,4-dihydro-2H-1-benzopyran-2-carboxamide]: the negative-log EC50 (pEC50) was greater than 8.00. To `O=C(NC12CC(n3cc(-c4ccc(OC(F)(F)F)cn4)cn3)(C1)C2)[C@H]1C[C@@H](O)c2cc(Cl)ccc2O1` [Compound 308, (2R,4R)-6-chloro-4-hydroxy-N-(3-{4-[5-(trifluoromethoxy)pyridin-2-yl]-1H-pyrazol-1-yl}bicyclo[1.1.1]pentan-1-yl)-3,4-dihydro-2H-1-benzopyran-2-carboxamide] belongs greater than 8.00. Turning to `O=C1C[C@@H](C(=O)NC23CC(c4nnc(COc5ccc(Cl)c(F)c5)o4)(C2)C3)Oc2ccc(Cl)cc21` [Compound 109, (2S)-6-chloro-N-(3-{5-[(4-chloro-3-fluorophenoxy)methyl]-1,3,4-oxadiazol-2-yl}bicyclo[1.1.1]pentan-1-yl)-4-oxo-3,4-dihydro-2H-1-benzopyran-2-carboxamide], the negative logarithm of the EC50 (pEC50) is 7.30 to 8.00. In the case of `O=C(NC12CC(C(=O)NCc3ccc(C(F)(F)F)cn3)(C1)C2)[C@H]1C[C@@H](O)c2cc(Cl)ccc2O1` [Compound 119, (2R,4R)-6-chloro-4-hydroxy-N-[3-({[5-(trifluoromethyl)pyridin-2-yl]methyl}carbamoyl)bicyclo[1.1.1]pentan-1-yl]-3,4-dihydro-2H-1-benzopyran-2-carboxamide], the pEC50 was 7.30 to 8.00.

Regarding `O=C(NC12CC(N3CC(c4ccc(Cl)cc4)OC3=O)(C1)C2)[C@@H]1C[C@@H](O)c2cc(Cl)ccc2O1` (stereo partly drawn) [Compound 278, (2S,4R)-6-chloro-N-{3-[5-(4-chlorophenyl)-2-oxo-1,3-oxazolidin-3-yl]bicyclo[1.1.1]pentan-1-yl}-4-hydroxy-3,4-dihydro-2H-1-benzopyran-2-carboxamide], the negative-log EC50 (pEC50) was 5.70 to 6.30. `O=C(NC12CCC(C(=O)N[C@H]3C[C@@H](OC(F)(F)F)C3)(CC1)OC2)[C@@H]1C[C@H](O)c2cc(Cl)ccc2O1` [Compound 206, (2S,4S)-6-chloro-4-hydroxy-N-(1-{[cis-3-(trifluoromethoxy)cyclobutyl]carbamoyl}-2-oxabicyclo[2.2.2]octan-4-yl)-3,4-dihydro-2H-1-benzopyran-2-carboxamide]: the negative-log EC50 (pEC50) is 5.70 to 6.30. For the compound `O=C(COc1ccc(Cl)c(F)c1)NC12CC(NC(=O)[C@H]3C[C@@H](OC(F)(F)F)C3)(C1)C2` [Compound 118, (1s,3s)-N-{3-[2-(4-chloro-3-fluorophenoxy)acetamido]bicyclo[1.1.1]pentan-1-yl}-3-(trifluoromethoxy)cyclobutane-1-carboxamide], the pEC50 was 5.70 to 6.30. For `O=C(NC12CC(c3cc(-c4ccc(Cl)c(F)c4)on3)(C1)C2)[C@@H]1C[C@@H](O)c2cc(Cl)ccc2O1` [Compound 259, (2S,4R)-6-chloro-N-{3-[5-(4-chloro-3-fluorophenyl)-1,2-oxazol-3-yl]bicyclo[11.11]pentan-1-yl}-4-hydroxy-3,4-dihydro-2H-1-benzopyran-2-carboxamide], the pEC50 is 7.30 to 8.00. Regarding `O=C(NC12CC(c3nc(COc4ccc(Cl)c(F)c4)no3)(C1)C2)[C@H]1C[C@@H](O)c2cc(Cl)ccc2O1` [Compound 156, (2R,4R)-6-chloro-N-(3-{3-[(4-chloro-3-fluorophenoxy)methyl]-1,2,4-oxadiazol-5-yl}bicyclo[1.1.1]pentan-1-yl)-4-hydroxy-3,4-dihydro-2H-1-benzopyran-2-carboxamide], the pEC50 was greater than 8.00.

For the compound `O=C(COc1ccc(Cl)c(F)c1)NC12CCC(c3nnc([C@H]4C[C@@H](OC(F)(F)F)C4)o3)(CC1)CC2O` (stereo partly drawn) [Compound 124, 2-(4-chloro-3-fluorophenoxy)-N-(2-hydroxy-4-{5-[(1s,3s)-3-(trifluoromethoxy)cyclobutyl]-1,3,4-oxadiazol-2-yl}bicyclo[2.2.2]octan-1-yl)acetamide], the negative-log EC50 (pEC50) was 7.30 to 8.00. As for `O=C1CC(C(=O)NC23CC(n4cnc(-c5ccc(F)c(F)c5)c4)(C2)C3)Oc2ccc(Cl)cc21` (stereo not drawn) [Compound 148, 6-chloro-N-{3-[4-(3,4-difluorophenyl)-1H-imidazol-1-yl]bicyclo[1.1.1]pentan-1-yl}-4-oxo-3,4-dihydro-2H-1-benzopyran-2-carboxamide], the negative-log EC50 (pEC50) is 7.30 to 8.00. Take `O=C(NC12CC(n3ccc(-c4ccc(Cl)cc4)c3)(C1)C2)[C@H]1C[C@@H](O)c2cc(Cl)ccc2O1` [Compound 240, (2R,4R)-6-chloro-N-{3-[3-(4-chlorophenyl)-1H-pyrrol-1-yl]bicyclo[1.1.1]pentan-1-yl}-4-hydroxy-3,4-dihydro-2H-1-benzopyran-2-carboxamide]: the pEC50 was greater than 8.00. On to `O=C(NC12CCC(C(=O)N[C@H]3C[C@@H](OC(F)(F)F)C3)(CC1)OC2)[C@H]1C[C@@H](O)c2cc(Cl)ccc2O1` [Compound 205, (2R,4R)-6-chloro-4-hydroxy-N-(1-{[cis-3-(trifluoromethoxy)cyclobutyl]carbamoyl}-2-oxabicyclo[2.2.2]octan-4-yl)-3,4-dihydro-2H-1-benzopyran-2-carboxamide], for which the pEC50 was 6.60 to 7.30. On to `O=C(CO[C@H]1C[C@@H](OC(F)(F)F)C1)NC12CC(NC(=O)[C@H]3C[C@@H](O)c4cc(Cl)ccc4O3)(C1)C2` [Compound 164, (2R,4R)-6-chloro-4-hydroxy-N-[3-(2-{[cis-3-(trifluoromethoxy)cyclobutyl]oxy}acetamido)bicyclo[1.1.1]pentan-1-yl]-3,4-dihydro-2H-1-benzopyran-2-carboxamide], for which the negative-log EC50 (pEC50) was greater than 8.00. Take `O=C(NCc1ccc(C(F)(F)F)cn1)[C@H]1C[C@H]2O[C@@H]1C[C@@H]2NC(=O)[C@H]1C[C@@H](O)c2cc(Cl)ccc2O1` (mixture of isomers) [Compound 313, (2R,4R)-6-chloro-4-hydroxy-N-[(1RS,2SR,4RS,5SR)-5-({[5-(trifluoromethyl)pyridin-2-yl]methyl}carbamoyl)-7-oxabicyclo[2.2.1]heptan-2-yl]-3,4-dihydro-2H-1-benzopyran-2-carboxamide]: the pEC50 was 6.30 to 6.60. For the compound `O=C(NC12CC(NC(=O)[C@@H]3C[C@@H]3COC(F)(F)F)(C1)C2)[C@H]1C[C@@H](O)c2cc(Cl)ccc2O1` (mixture of isomers) [Compound 299, (2R,4R)-6-chloro-4-hydroxy-N-[3-({(1RS,2SR)-2-[(trifluoromethoxy)methyl]cyclopropane-1-carbonyl}amino)bicyclo[1.1.1]pentan-1-yl]-3,4-dihydro-2H-1-benzopyran-2-carboxamide], the pEC50 is 5.70 to 6.30.

Take `O=C(CO[C@H]1C[C@@H](OC(F)(F)F)C1)NC12CCC(NC(=O)[C@H]3CC(=O)c4cc(Cl)ccc4O3)(CC1)[C@@H](O)C2` [Compound 223, (2R)-6-chloro-N-[(2S)-2-hydroxy-4-(2-{[cis-3-(trifluoromethoxy)cyclobutyl]oxy}acetamido)bicyclo[2.2.2]octan-1-yl]-4-oxo-3,4-dihydro-2H-1-benzopyran-2-carboxamide]: the negative-log EC50 (pEC50) is 7.30 to 8.00. To `O=C(N[C@H]1CC[C@H](C(=O)NCc2ccc(C(F)(F)F)cn2)CC1)[C@H]1C[C@H](O)c2cc(Cl)ccc2O1` [Compound 198, (2R,4S)-6-chloro-4-hydroxy-N-[trans-4-({[5-(trifluoromethyl)pyridin-2-yl]methyl}carbamoyl)cyclohexyl]-3,4-dihydro-2H-1-benzopyran-2-carboxamide] belongs 6.30 to 6.60.

The pEC50 is the EC50 on a negative log10 scale, so that one unit is a factor of ten.
